The values below come from patent US5281613A, “Heterocyclic compounds” (Imperial Chemical Industries PLC, priority 1991, dated 1994).

The target of assay [1] is T1, AII receptors (guinea pig adrenal gland cell surface membrane fraction) (Cavia porcellus, UniProt Q9WV26).
T1 construct: from tissue; host or cells: guinea pig adrenal gland, cell surface membrane fraction
T1 sequence (Q9WV26 1-359): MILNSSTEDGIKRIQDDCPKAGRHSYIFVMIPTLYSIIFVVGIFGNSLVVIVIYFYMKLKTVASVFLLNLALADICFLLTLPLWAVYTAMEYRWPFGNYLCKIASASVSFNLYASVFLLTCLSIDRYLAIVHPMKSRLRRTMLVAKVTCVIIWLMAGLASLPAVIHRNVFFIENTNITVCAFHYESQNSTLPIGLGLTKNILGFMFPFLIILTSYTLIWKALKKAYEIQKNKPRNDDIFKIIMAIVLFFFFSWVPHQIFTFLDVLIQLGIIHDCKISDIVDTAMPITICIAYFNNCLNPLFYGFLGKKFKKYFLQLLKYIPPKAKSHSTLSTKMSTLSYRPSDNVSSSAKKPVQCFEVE
In words: Test A: in vitro displacement of radiolabelled AII binding to guinea pig adrenal gland cell surface membranes. Conditions: read-out: IC50 (concentration for 50% displacement of radiolabelled AII binding). The protocol: The antagonism of one or more of the physiological actions of AII and, in particular, the antagonism of the interaction of AII with the receptors which mediate its effects on a target tissue, may be assessed using one or more of the following, routine laboratory procedures:
This in vitro procedure involves the incubation of the test compound initially at a concentration of 100 micromolar (or less) in a buffered mixture containing fixed concentrations of radiolabelled AII and a cell surface membrane fraction prepared from a suitable angiotensin target tissue. In this test, the source of cell surface membranes is the guinea pig adrenal gland which is well known to respond to AII. Interaction of the radiolabelled AII with its receptors (assessed as radiolabel bound to the particlate membrane fraction following removal of unbound radiolabel by a rapid filtration procedure such as is standard in such studies) is antagonized by compounds which also bind to the membrane receptor sites and the degree of antagonism (observed in the test as displacement of membrane-bound radioactivity) is determined readily by comparing the receptor-bound radioactivity in the presence of the test compound at the specified test concentration with a control value determined in the absence of the test compound. […]

The test system of assay [2] is angiotensin II-induced pressor responses. Briefly: Test C: antagonism of angiotensin II-induced pressor responses in rats. Conditions: iv, rat, i.v. administration. In kind it is in vivo. From the text: The antagonism of one or more of the physiological actions of AII and, in particular, the antagonism of the interaction of AII with the receptors which mediate its effects on a target tissue, may be assessed using one or more of the following, routine laboratory procedures: Test C This in vivo test involves using terminally-anaesthetised or conscious rats in which an arterial catheter has been implanted under anaesthesia for the measurement of changes in blood pressure. The AII antagonistic effects of the test compound following oral or parenteral administration, are assessed against angiotensin II-induced pressor responses. To ensure that the effect is specific, the effect of the test compound on vasopressin-induced pressor responses may also be determined in the same preparation.

Regarding `CCc1cc(OCc2ccc3oc(-c4ccccc4-c4nnn[nH]4)c(Br)c3c2)c2c(n1)CCCC2.Cl` [Example 8, 4-[(3-bromo-2-(2-(1H-tetrazol-5-yl)phenyl)benzofuran-5-yl)methoxy]-2-ethyl-5,6,7,8-tetrahydroquinoline hydrochloride], the IC50 in assay [1] was 30 nM. In assay [2], this compound yielded an ED50 of 8.2 mg/kg.

The term ED50 denotes the dose that gives a 50% effect, or the effect in half of the subjects. High values mean weaker potency, low ones greater potency.
